Experiment [1] concerns 5-FU induced toxicity (ileum tissue damage). Description: Effects of Compound A against 5-FU induced toxicity: histopathological tissue damage score of ileum. The following applies: for Total score (tissue damage): 5-FU 50 mg/kg i.p. Day 1 to 4, ileum H&E on Day 7. It is filed as in vivo. As for the experimental part: After 1 week of acclimatization period, the experiment started (Day 0). Compound A ((−)-7-{(2R,4aR,5R,7aR)-2-[(3S)-1,1-difluoro-3-methylpentyl]-2-hydroxy-6-oxooctahydrocyclopenta[b]pyran-5-yl}heptanoic acid) (3, 10, 30 μg/kg) or vehicle was administered orally once daily for 5 days from Day 0 to 4 (Schedule 1). In other dosing schedule group, Compound A (30 μg/kg) was administered orally once daily from Day 4 to Day 6 (Schedule 2). 5-FU (50 mg/kg) was administered intraperitoneally once daily for 4 days from Day 1 to 4. On Day 1, 2, 3, and 4,5-FU was administered immediately after administration of Compound A or vehicle. During the experiment period (Day 0-7), animals were weighed every day. On Day 7, the animals were anesthetized by isofluran. Ileum was excised and fixed in 10% formalin. Paraffin-embedded sections were prepared and stained with H&E for histopathological evaluation of tissue damage. The tissue damage was graded according to the following criteria: • 0. No change, • 1: slight, • 2: mild, • 3: moderate, • 4: severe The effect of each compound was evaluated using total score of tissue damage.

The subject of experiment [2] is stomatitis aggravated by 5-FU (cheek pouch mucosa). Kind of experiment: Effects of Compound A on stomatitis: 5-FU plus cheek pouch scratching, hamster. Type of experiment: in vivo, Golden Syrian hamsters. As for the experimental part:
Male Golden Syrian hamsters (5 weeks old) were used. After 1 week acclimatization period, the hamsters were administered intraperitoneally with 60 mg/kg 5-fluorouracil (5-FU) (Day 1). 5-FU administration was repeated again on Day 2. On Day 4, the cheek pouch mucosa of the hamsters is mechanically irritated under anesthesia by superficial scratching with the tip of an 18-gauge needle to produce transient erythema. On Day 8 and 10, the same scratching procedure was conducted and 5-FU administration was done. The Compound A at the doses of 24 μg/site or vehicle was topically applied to the cheek pouches from Day 1 to Day 14. During the treatment, the cheek pouch mucosa was macroscopically observed and the buccal lesion was scored according to the following criteria (stomatitis score): • 0: Normal mucosa • 1: Erythema was observed • 2: Severe erythema was observed • 3: Severe erythema and formation of ulcers in one or more places were observed. Cumulative size of the ulcers involves ˜25% of the pouch mucosa. Pseudomembrane formation was evident. • 4: Severe erythema and formation of ulcers were observed. Cumulative size of the ulcers involved about half of the pouch mucosa. Loss of mucosal pliability. • 5: diffuse, extensive ulceration. Loss of mucosal pliability. […] Severity of stomatitis was evaluated using the mean of scores per treatment group.

As for `CC[C@H](C)CC(F)(F)[C@@]1(O)CC[C@H]2[C@@H](CC(=O)[C@@H]2CCCCCCC(=O)O)O1` [Compound A, (−)-7-{(2R,4aR,5R,7aR)-2-[(3S)-1,1-difluoro-3-methylpentyl]-2-hydroxy-6-oxooctahydrocyclopenta[b]pyran-5-yl}heptanoic acid], the “Total score (tissue damage)” value in experiment [1] (Compound A 3 μg/kg orally once daily, Schedule 1 (Day 0 to 4)) came out at 10.0; in experiment [1] (Compound A 10 μg/kg orally once daily, Schedule 1 (Day 0 to 4)) it was 5.0; in experiment [1] (Compound A 30 μg/kg orally once daily, Schedule 1 (Day 0 to 4)), 5.7; in experiment [1] (Compound A 30 μg/kg orally once daily, Schedule 2 (Day 4 to Day 6)) it was 4.3. For the same compound, the “Effect on total score of tissue damage (in words)” value in experiment [1] (at 10 or 30 μg/kg regardless of the dosing schedule) is “decreased total scores”. For the same compound, the “Effect on stomatitis compared to vehicle control group (in words)” value in experiment [2] (24 μg/site topical, stomatitis aggravated by 5-FU treatment) was “improved stomatitis”. In experiment [2] (24 μg/site topically to cheek pouches Day 1 to Day 14, 5-FU treatment yes, score 0-5, p < 0.05 vs. vehicle control), the “stomatitis score on Day 14 (Mean ± SE)” value came out at 0.25 ± 0.25.

The values are drawn from patent publication US9084815B2, “Method for treating damage induced by an anti-tumor agent, treating mucositis and treating tumor” (SUCAMPO AG, priority 2009, dated 2015).
